Experiment [1] has as its target T1, PDE4B: The catalytic domain of human PDE4B from S152-S528 (Homo sapiens, UniProt Q07343).
T1 construct: His6 (N); thrombin cleavage site (N); made in house; host or cells: E. coli
Briefly: PDE4 IC50 determination by Scintillation Proximity Assay, PDE4B. The experiment is classed as biochemical. To be noted: Table 1B, Formula I compounds; read-out: IC50 PDE4B. A digest of the protocol:
(§1)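 Radiometric SPA: PDE4B (80 ng/ml) or PDE4D (4 ng/ml) hydrolysed [^3H]cAMP over 30 min at 30°, and the bead-bound [^3H]AMP was scintillation-counted.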

The target in a further experiment is T2, PDE4D (Homo sapiens, UniProt Q08499).
T2 construct: PDE4D: The catalytic domain of human PDE4B from S3 16-V692; His6 (N); thrombin cleavage site (N); made in house; host or cells: E. coli
T2 sequence (Q08499 380-756): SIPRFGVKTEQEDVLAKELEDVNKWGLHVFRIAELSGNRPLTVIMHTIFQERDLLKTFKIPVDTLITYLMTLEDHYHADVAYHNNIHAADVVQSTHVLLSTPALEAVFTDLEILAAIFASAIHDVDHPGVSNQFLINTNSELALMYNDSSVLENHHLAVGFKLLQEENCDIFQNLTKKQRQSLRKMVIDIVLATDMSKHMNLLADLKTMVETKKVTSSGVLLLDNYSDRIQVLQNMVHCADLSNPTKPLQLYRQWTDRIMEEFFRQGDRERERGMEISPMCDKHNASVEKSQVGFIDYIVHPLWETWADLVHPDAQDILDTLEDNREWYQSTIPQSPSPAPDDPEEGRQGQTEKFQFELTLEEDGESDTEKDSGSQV
As to the kind of experiment: PDE4 IC50 determination by Scintillation Proximity Assay, PDE4D. To be noted: Table 1B, Formula I compounds; read-out: IC50 PDE4D. The class given is biochemical. In short, it runs like this: as §1

Experiment [2] addresses T3, full-length human PDE4B2 isozyme (Homo sapiens, UniProt Q07343).
T3 construct: The full-length human PDE4B2 isozyme; His6 (N); TEV cleavage site (N); made in house; host or cells: baculovirus infected insect cells (unpurified lysate)
Briefly: PDE4 IC50 determination by Scintillation Proximity Assay, PDE4B2. The experiment is classed as biochemical. To be noted: Table 1B, Formula I compounds; read-out: IC50 PDE4B2. In short, it runs like this: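 Unpurified His6-TEV-tagged full-length human PDE4B2 from baculovirus-infected insect cell lysate (2.5 μl of 50% glycerol stock/ml) hydrolysed [3H]cAMP in 50 mM Tris pH 7.5, 8.3 mM MgCl, 1.7 mM EGTA, 0.01% BSA for 30 min at 30°. Stopped with SPA beads in 18 mM ZnSO4; [3H]AMP scintillation counted, IC50 by non-linear regression.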

Experiment [3] has as its target T4, full-length human PDE4D5 isozyme (Homo sapiens, UniProt Q08499).
T4 construct: The full-length human PDE4D5 isozyme; His6 (N); TEV cleavage site (N); made in house; host or cells: baculovirus infected insect cells (unpurified lysate)
As to the kind of experiment: PDE4 IC50 determination by Scintillation Proximity Assay, PDE4D5. The experiment is classed as biochemical. The settings on record: Table 1B, Formula I compounds; read-out: IC50 PDE4D5. A digest of the protocol: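 Unpurified His6-tagged full-length human PDE4D5 from baculovirus-infected insect cell lysate, 0.083 μl glycerol stock/ml, hydrolysed [3H]cAMP in Tris pH 7.5/MgCl/EGTA buffer, 30 min at 30°. ZnSO4/SPA beads stop; [3H]AMP counted. Controls: DMSO and roflumilast; 11-point duplicate curves, nonlinear-regression IC50.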

The test system of experiment [4] is TNF alpha production in LPS-stimulated human blood (Buffy coat). As to the kind of experiment: TNF alpha production by stimulation with LPS in whole blood cultures. The experiment is classed as cell-based. To be noted: Homo sapiens; Table 1B, Formula I compounds; read-out: IC50 h TNFα. The method, then:
Compounds were assayed to generate IC50 numbers as described in Example 54, using the following assay protocol (see Tables 3B and 4B for compounds and results).
Protocol • 1) Obtained 20 mM DMSO aliquots of desired concentrations of compounds (see Tables 3B and 4B for compounds tested and results). Placed 2 μl/well compound in DMSO in the top row of the dilution plate. Added 98 μl of RPMI 1640 media w/2.5% heat inactivated FBS.
2) Made the same media with 2% DMSO in it. Added 60 μl/well to well to make compound titration. Took 30 μl of top row and did a 1:3 dilution down the plate. In column 11 added 4 wells of 50 μM roflumilast and piclamilast. In column 12 added 2% DMSO media.
3) Transfered 20 μl/well into assay plates in duplicate.
4) Obtained human Buffy coat.
5) Diluted blood with 7 volumes of RPMI 1640 media with 1% P/S and 2.5% heat inactivated FBS (a 1:8 dilution)
6) Added160 μl/well of diluted blood to the assay plates.
7) Incubated for 1 hour at 37 degrees 5% CO2
8) Diluted LPS (which was already diluted to 1 mg/ml in PBS, 20 μl aliquots frozen −20 C.) to 10× desired final concentration to make a […] dilution (final concentration should be 100 ng/ml).
9) After 1 hour incubation added 20 μl/well of LPS to plates. A non-LPS treated background was also prepared. Samples were put on the shaker for a one minute 900 rpm.
10) Incubated for 4 hours in incubator.
11) After incubation, put on the shaker for a one minute 900 rpm and spun plate at 100 g for 10 minutes, Decel 5.
12) Carefully pipetted the top 75 μl supernatant into a new plate. Samples were frozen as needed.
Biosource hu-TNF ALPHA ELISA
• REAGENTS USED • DPBS 10×: VWR45000-428 (dilute 1:10 with Millipore Water) • TWEEN 20: FISHER BP337-500 • CAPTURE AND DETECTION ANTIBODIES: R&D DY510E • STREP-HRP: Biosource part SNN4004X • COLOR REAGENTS: R&D DY994 • STOP SOLUTION: from chemistry, or R&D DY999 • 1) Thawed samples to RT as needed. • 2) Added 50 μl Incubation buffer/well. • 3) Added 50 μl blood samples +50 μl Diluent buffer • 4) Incubated 2 hours at room temp. • 5) Washed the plate 4× with 300 μl/well wash buffer with microfill. Wash buffer was DPBS with 0.05% Tween pH 7.2-7.4 • 6) Added 100 μl biotinylated anti-TNFalpha • 7) Incubateed 1 hours at room temp. • 8) Washed the plate 4× with 300 μl/well wash buffer with microfill. Wash buffer was DPBS with 0.05% Tween pH 7.2-7.4 • 9) Added^100 μl Streptavidin-HRP working solution • 10) Incubated for 30 minutes at room temp. • 11) Washed the plate 4× with 300 μl/well wash buffer with microfill. Wash buffer was DPBS with 0.05% Tween pH 7.2-7.4 • 12) Added 100 μl Chromagen • 13) Incubated in the dark for 30 minutes until the blue color developed satisfactorily. • 14) Added 100 μl/well stop solution (2 N H2SO4). • 15) Read plate on WallacVictor at 450 nm for 0.1 sec/well

T3 sequence (Q07343 1-564 isoform Q07343-2): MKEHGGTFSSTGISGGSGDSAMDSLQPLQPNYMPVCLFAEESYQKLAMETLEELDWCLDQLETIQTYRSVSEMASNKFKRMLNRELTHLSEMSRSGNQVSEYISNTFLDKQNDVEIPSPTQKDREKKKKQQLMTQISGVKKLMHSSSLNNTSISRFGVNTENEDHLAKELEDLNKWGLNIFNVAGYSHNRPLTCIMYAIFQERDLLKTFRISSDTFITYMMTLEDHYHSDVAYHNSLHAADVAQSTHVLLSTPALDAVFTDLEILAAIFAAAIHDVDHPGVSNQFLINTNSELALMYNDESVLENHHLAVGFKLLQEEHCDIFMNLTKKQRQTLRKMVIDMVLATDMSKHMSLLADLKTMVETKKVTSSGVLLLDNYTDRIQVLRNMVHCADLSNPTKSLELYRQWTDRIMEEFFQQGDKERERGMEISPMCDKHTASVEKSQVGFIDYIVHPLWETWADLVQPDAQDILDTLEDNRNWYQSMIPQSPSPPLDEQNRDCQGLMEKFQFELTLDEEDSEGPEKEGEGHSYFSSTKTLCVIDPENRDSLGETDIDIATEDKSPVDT
T4 sequence (Q08499 1-745 isoform Q08499-6): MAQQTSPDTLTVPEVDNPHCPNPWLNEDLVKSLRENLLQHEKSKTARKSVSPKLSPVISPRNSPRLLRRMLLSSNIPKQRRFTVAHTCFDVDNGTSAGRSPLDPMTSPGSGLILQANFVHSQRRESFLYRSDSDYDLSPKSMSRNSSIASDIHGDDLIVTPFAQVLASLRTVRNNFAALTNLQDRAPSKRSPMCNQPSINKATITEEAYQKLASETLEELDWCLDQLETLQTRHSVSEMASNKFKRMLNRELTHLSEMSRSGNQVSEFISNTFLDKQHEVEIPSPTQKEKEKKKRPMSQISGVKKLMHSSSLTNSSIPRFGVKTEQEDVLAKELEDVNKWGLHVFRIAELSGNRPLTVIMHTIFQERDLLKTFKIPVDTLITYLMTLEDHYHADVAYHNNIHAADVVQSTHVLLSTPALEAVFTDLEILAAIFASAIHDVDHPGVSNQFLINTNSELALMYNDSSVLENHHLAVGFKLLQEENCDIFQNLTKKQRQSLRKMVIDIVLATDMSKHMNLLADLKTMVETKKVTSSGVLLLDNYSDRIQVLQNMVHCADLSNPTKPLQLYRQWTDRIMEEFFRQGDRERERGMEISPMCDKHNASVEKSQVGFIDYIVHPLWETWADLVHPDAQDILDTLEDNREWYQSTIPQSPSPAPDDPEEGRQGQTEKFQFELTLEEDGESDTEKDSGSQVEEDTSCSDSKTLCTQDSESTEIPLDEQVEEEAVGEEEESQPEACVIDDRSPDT
T1 sequence (Q07343 with tags, fused parts or gaps): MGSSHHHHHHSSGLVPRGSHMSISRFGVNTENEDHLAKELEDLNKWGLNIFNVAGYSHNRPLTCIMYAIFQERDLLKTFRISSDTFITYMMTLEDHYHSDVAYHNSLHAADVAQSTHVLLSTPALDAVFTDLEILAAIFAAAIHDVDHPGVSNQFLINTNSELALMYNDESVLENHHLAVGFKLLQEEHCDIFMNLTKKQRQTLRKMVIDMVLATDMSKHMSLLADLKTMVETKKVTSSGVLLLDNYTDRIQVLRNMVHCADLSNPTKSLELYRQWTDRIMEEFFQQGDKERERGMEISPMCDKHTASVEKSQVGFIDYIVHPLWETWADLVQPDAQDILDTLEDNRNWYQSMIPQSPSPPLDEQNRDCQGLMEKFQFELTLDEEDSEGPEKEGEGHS

Consider `CC(C)C(C)Nc1sc(C(=O)c2cc(-c3ccccc3)no2)c(N)c1C#N` (stereo not drawn) [Compound 1-223, 4-Amino-2-(1,2-dimethyl-propylamino)-5-(3-phenyl-isoxazoie-5-carbonyl)-thiophene-3-carbonitrile], for which the IC50 was < 10 µM in experiment [1]; > 10 µM on PDE4D; < 10 µM in experiment [2]; > 10 µM in experiment [3]; > 10 µM in experiment [4].

On to `CC(C)Nc1sc(C(=O)c2cc(-c3ccc(Cl)c(Cl)c3)no2)c(N)c1C#N` [Compound 1-225], for which the IC50 in experiment [1] is < 10 µM; on PDE4D, > 10 µM; in experiment [2], < 10 µM; in experiment [3] it was > 10 µM; in experiment [4], > 10 µM.

Regarding `CCC(C)Nc1sc(C(=O)c2cc(-c3ccccc3)no2)c(N)c1C(N)=O` (stereo not drawn) [Compound 1-244, 4-Amino-2-sec-butylamino-5-(3-phenyl-isoxazole-5-carbonyl)-thiophene-3-carboxylic acid amide], the IC50 (in experiment [1]; on PDE4D; in experiment [2]; in experiment [3]; in experiment [4]) was < 10 µM each time.

On to `CC(C)CNc1sc(C(=O)c2cc(-c3ccc(Cl)c(Cl)c3)no2)c(N)c1C(N)=O` [Compound 1-245, 4-Amino-5-[3-(3,4-dichloro-phenyl)-isoxazole-5-carbonyl]-2-isobutylamino-thiophene-3-carboxylic acid amide], for which the IC50 (in experiment [1]; at PDE4D; in experiment [2]; in experiment [3]; in experiment [4]) was < 10 µM throughout.

With `CCC(C)Nc1sc(C(=O)c2cc(-c3ccc(Cl)c(Cl)c3)no2)c(N)c1C#N` (stereo not drawn) [Compound 1-247, 4-Amino-2-sec-butylamino-5-[3-(3,4-dichloro-phenyl)-isoxazole-5-carbonyl]-thiophene-3-carbonitrile], the IC50 was < 10 µM in experiment [1]; > 10 µM at PDE4D; < 10 µM in experiment [2]; > 10 µM in experiment [3]; > 10 µM in experiment [4].

`N#Cc1c(NC2CCCC2)sc(C(=O)c2cc(-c3ccc(N)cc3)no2)c1N` [Compound 1-250, 4-Amino-5-[3-(4-amino-phenyl)-isoxazole-5-carbonyl]-2-cyclopentylamino-thiophene-3-carbonitrile]: the IC50 in experiment [1] was < 10 µM; on PDE4D, < 10 µM; in experiment [2], < 10 µM; in experiment [3] it was < 10 µM; in experiment [4] it was > 10 µM.

Take `Cc1nc(-c2cnccn2)sc1C(=O)c1sc(NC2CCCC2)c(C(N)=O)c1N` [Compound 1-252, 4-Amino-2-cyclopentylamino-5-(4-methyl-2-pyrazin-2-yl-thiazole-5-carbonyl)-thiophene-3-carboxylic acid amide]: the IC50 was < 10 µM in experiment [1]; < 10 µM on PDE4D; < 10 µM in experiment [2]; < 10 µM in experiment [3]; > 10 µM in experiment [4].

For the compound `NC(=O)c1c(NC2CCCC2)sc(C(=O)c2cc(-c3ccc(N)cc3)no2)c1N` [Compound 1-253, 4-Amino-5-[3-(4-amino-phenyl)-isoxazole-5-carbonyl]-2-cyclopentylamino-thiophene-3-carboxylic acid amide], the IC50 in experiment [1] was < 10 µM; on PDE4D it was < 10 µM; in experiment [2] it was < 10 µM; in experiment [3], < 10 µM; in experiment [4], > 10 µM.

Take `CC(C)CNc1sc(C(=O)c2cc(-c3ccc(N)cc3)no2)c(N)c1C(N)=O` [Compound 1-254, 4-Amino-5-[3-(4-amino-phenyl)-isoxazole-5-carbonyl]-2-isobutylamino-thiophene-3-carboxylic acid amide]: the IC50 (in experiment [1]; at PDE4D; in experiment [2]; in experiment [3]; in experiment [4]) was < 10 µM in each case.

The values above are taken from US7585859B2, “PDE4B inhibitors and uses therefor” (Plexxikon, Inc., priority 2004, dated 2009).
